The text below walks through data of ChEMBL document CHEMBL5338751, “Discovery of the First-in-Class Intestinal Restricted FXR and FABP1 Dual Modulator ZLY28 for the Treatment of Nonalcoholic Fatty Liver Disease” (J Med Chem, 2023).

Active and inactive are the calls of the source. The calls are words filed in the database; no cut-off is given here.

The nature of data set [1]: Subacute toxicity in ICR mouse assessed as changes in serum TBA level at 500 mg/kg/day, po administered for 14 days. The format is organism-based. Particulars: in vivo, 336 h, time 14 day.
The target of data set [2] is Retinoic acid receptor alpha (Homo sapiens, UniProt P10276). Briefly: Activation of Gal-DBD and NHRLBD fused RARalpha (unknown origin) transfected in African green monkey CV-1 cells by luciferase reporter assay. The format is cell-based. For orientation: Reporter assays use an easily measured gene product as a stand-in for the process of interest.
For data set [3], the target named is Fatty acid-binding protein, adipocyte (Homo sapiens, UniProt P15090). The data set is described as follows: Displacement of 8-anilino-1-naphthalene-sulfonic acid from FABP4 (unknown origin) incubated for 3 mins by fluorescence based assay.
Data set [4] is described as follows: Subacute toxicity in ICR mouse assessed as changes in serum AST level at 500 mg/kg/day, po administered for 14 days. The format is organism-based. Particulars: in vivo, 336 h, time 14 day.
For data set [5], the system named is Mus musculus. Briefly: Anti-NASH activity in western diet and CCl4-induced nonalcoholic steatohepatitis C57BL/6 mouse assessed as downregulation of IL-1beta expression level at 20 mg/kg, po administered for 12 weeks starting from week 8 and change in dose for every 5 days by ELISA. The format is functional, organism-based. Particulars: time 4.0 weeks. A general note: ELISA stands for enzyme-linked immunosorbent assay.

For data set [6], the system named is Mus musculus. Briefly: Anti-NASH activity in western diet and CCl4-induced nonalcoholic steatohepatitis C57BL/6 mouse assessed as reduction in MCP-1 level at 20 mg/kg, po administered for 12 weeks starting from week 8 and change in dose for every 5 days by ELISA. The format is functional, organism-based. Particulars: time 4.0 weeks.
Data set [7] has as its target T1, Peroxisome proliferator-activated receptor gamma (Homo sapiens, UniProt P37231).
T1 sequence (P37231 whole entry): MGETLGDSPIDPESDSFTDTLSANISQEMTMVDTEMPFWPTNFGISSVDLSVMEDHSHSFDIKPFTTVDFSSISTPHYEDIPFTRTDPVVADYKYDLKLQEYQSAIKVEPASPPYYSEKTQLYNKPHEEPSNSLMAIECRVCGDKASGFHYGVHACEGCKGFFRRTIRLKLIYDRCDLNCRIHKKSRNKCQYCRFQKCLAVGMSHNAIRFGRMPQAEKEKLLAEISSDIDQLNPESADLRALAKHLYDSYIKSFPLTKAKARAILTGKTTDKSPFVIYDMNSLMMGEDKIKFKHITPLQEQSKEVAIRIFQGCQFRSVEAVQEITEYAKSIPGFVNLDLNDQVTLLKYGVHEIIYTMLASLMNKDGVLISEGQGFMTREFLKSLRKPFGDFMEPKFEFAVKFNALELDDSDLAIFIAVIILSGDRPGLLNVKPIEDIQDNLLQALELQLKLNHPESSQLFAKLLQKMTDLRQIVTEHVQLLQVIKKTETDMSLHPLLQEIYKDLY
The data set is described as follows: Inhibition of PPARgamma (unknown origin) transfected in HEK293 cells incubated for 18 hrs in presence of rosiglitazone by dual luciferase reporter assay. The format is cell-based.

For another data set, the target named is Estrogen receptor (Homo sapiens, UniProt P03372). The data set is described as follows: Activation of Gal-DBD and NHRLBD fused ERalpha (unknown origin) transfected in African green monkey CV-1 cells by luciferase reporter assay. The format is cell-based.
Chain of Estrogen receptor (P03372 whole entry, the tested form may be a part): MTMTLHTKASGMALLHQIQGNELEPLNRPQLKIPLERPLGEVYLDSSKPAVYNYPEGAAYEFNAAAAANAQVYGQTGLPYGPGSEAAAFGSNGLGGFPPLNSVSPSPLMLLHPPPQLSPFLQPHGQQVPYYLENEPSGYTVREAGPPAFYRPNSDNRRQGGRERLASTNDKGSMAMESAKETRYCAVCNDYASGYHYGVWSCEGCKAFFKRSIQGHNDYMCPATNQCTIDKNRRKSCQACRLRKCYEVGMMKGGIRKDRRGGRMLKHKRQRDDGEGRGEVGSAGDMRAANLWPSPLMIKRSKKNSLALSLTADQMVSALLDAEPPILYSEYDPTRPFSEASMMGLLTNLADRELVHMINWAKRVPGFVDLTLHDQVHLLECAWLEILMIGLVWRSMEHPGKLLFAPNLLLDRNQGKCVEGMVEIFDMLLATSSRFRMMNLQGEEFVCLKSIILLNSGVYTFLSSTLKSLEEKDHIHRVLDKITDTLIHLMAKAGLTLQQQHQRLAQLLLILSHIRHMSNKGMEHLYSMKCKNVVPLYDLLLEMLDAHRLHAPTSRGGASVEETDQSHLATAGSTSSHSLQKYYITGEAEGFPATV

Chain of Fatty acid-binding protein, adipocyte (P15090 whole entry): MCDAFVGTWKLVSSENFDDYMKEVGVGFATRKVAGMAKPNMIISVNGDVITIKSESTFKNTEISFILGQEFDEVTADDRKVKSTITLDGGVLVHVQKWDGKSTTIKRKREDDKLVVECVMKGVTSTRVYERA
Chain of Retinoic acid receptor alpha (P10276 whole entry, the tested form may be a part): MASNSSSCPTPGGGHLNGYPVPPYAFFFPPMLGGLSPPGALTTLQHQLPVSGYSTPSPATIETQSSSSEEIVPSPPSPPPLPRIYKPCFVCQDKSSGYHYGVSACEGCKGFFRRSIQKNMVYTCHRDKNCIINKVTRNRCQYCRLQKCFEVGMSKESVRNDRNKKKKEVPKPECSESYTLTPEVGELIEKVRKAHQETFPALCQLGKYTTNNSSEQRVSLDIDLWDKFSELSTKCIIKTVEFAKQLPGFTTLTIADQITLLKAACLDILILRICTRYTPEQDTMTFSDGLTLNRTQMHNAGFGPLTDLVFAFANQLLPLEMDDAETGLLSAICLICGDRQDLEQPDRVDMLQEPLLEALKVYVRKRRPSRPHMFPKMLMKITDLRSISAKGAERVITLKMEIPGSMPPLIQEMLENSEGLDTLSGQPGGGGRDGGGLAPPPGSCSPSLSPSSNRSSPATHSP

In general, EC50 refers to the concentration needed to bring the measured effect to its halfway point. Broadly, the IC50 is the concentration that inhibits the measured activity by half. Consider `O=C(O)C1(c2cccc(-c3ccc(OCc4c(-c5c(Cl)cccc5Cl)noc4C4CC4)cc3)c2)CC1`, for which the Activity entry in data set [1] and in data set [4] was “Non-Toxic” each time. In addition, the EC50 (in data set [2]; on Estrogen receptor) was more than 10 µM throughout. Moreover, the IC50 in data set [3] is 6.3 µM; in data set [7], more than 10 µM. The outcome with Mus musculus [5] and with Mus musculus [6] was Active.
